{
  "source": "paper PMC11123956",
  "about": "“Nobiletin Stimulates Adrenal Hormones and Modulates the Circadian Clock in Mice” (Nutrients, 2024)",
  "key": {"PDE7A": {"target": "T1, PDE7A (Homo sapiens, UniProt Q13946)", "T1 construct": "purchased Eurofins Panlabs Discovery Services Taiwan, Ltd. (contract assay); host or cells: insect Sf9 cells", "T1 sequence (Q13946 whole entry)": "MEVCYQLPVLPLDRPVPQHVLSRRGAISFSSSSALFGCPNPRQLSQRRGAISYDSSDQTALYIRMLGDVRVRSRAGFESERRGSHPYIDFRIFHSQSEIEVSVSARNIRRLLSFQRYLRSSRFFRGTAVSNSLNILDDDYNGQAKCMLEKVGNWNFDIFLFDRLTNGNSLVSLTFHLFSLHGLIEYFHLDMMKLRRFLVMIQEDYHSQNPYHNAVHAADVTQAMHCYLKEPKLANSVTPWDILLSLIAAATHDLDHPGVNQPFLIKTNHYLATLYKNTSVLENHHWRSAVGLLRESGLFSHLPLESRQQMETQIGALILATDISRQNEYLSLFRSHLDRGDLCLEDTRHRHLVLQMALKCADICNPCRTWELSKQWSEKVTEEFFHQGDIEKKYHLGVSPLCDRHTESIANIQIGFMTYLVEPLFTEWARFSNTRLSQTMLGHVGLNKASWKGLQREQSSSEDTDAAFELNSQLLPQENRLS", "assay": "PDE enzyme  assay, PDE7A", "type": "biochemical", "description": "Enzyme assays for various subtypes of PDE (Table 1 and Figure 4) were conducted by Eurofins Panlabs Discovery Services Taiwan, Ltd. (New Taipei City, Taiwan). In the assays, five or six concentrations of nobiletin over five or six orders of magnitude were examined in experiments conducted in duplicate to determine the IC50 (concentration of nobiletin exerting half-maximal inhibition of control-specific activity). IC50 values were determined by nonlinear least squares regression analysis using MathIQTM (ID Business Solutions Ltd., Woking, UK). FAM-cAMP, FAM-cGMP (0.1 μM), and 100 μM [^3H]cGMP + cGMP were used for the substrate in the human recombinant insect Sf9 cells or Bovine retinal rod outer segments depending on the PDE subtype. The spectrofluorometric quantitation of fluorescein-AMP-IMAP, fluorescein-GMP-IMAP, or [^3H] guanosine was used depending on the PDE subtype. A known […] of each PDE was used as the positive control."}, "Per1 mRNA": {"system": "Per1 mRNA", "assay": "Real-time RT-PCR of Per1 mRNA in peripheral tissues", "type": "in vivo, mice", "description": "Male C57BL/6J mice (7 weeks old) were purchased from Charles River Japan (Kanagawa, Japan) and used for the serum hormone assay and RT-PCR. Male ICR mice were purchased from Tokyo Laboratory Animals Science Co., Ltd. (Tokyo, Japan), and female PERIOD2::LUCIFERASE (PER2::LUC) knock-in mice (ICR background) bred at Waseda University were used for blood glucose measurements and in vivo imaging assays, respectively. The mice were all housed under conditions of controlled temperature (23 °C ± 3 °C), humidity (50% ± 20%), and lighting (lights on from 07:00 to 19:00 at Taisho Pharmaceutical Co., Ltd. or from 08:00 to 20:00 at Waseda University). In the 24 h cycle, Zeitgeber time 0 (ZT0) was designated as the time when the lights were turned on, and ZT12 was designated as the time when the lights were turned off. All the mice were given access to food and tap water ad libitum, and nobiletin (10–100 mg/kg; purchased from FUJIFILM Wako Pure Chemical Corporation, Osaka, Japan) was administered by intraperitoneal (i.p.) injection in the vehicle (10 mL/kg body weight) containing 0.5% carboxymethyl cellulose (CMC). Rolipram (PDE4 inhibitor, FUJIFILM Wako Pure Chemical Corporation) and SR1078 (RORα/γ agonist, FUJIFILM Wako Pure Chemical Corporation) were also used for the experiment at 10 mg/kg in 0.5% CMC [12]. Mice were euthanized by rapid decapitation for whole blood samples.\nFigure 3 Nobiletin stimulated adrenaline and corticosterone secretion, and induced acute clock gene expression changes. (A–C) Mice received intraperitoneal injections of control (0.5% CMC) or nobiletin (10 or 100 mg/kg) at ZT3. (A) Serum corticosterone at 1 h after treatment (n = 6 in each). $$$ p < 0.001 by Tukey’s multiple comparisons test. (B) Serum corticosterone and adrenaline at 1, 2, and 4 h after treatment (n = 4 in each). # p < 0.05 vs. control at each time point by Mann–Whitney test; ** p < 0.01 vs. control at each time point by Student’s t-test. (C) Blood glucose changes after treatment (n = 9 in each). Statistics of 2-way repeated ANOVA are indicated on the graph. […]"}},
  "data": [
    {"smiles": "COc1ccc(-c2cc(=O)c3c(OC)c(OC)c(OC)c(OC)c3o2)cc1OC", "note": "[nobiletin]", "values": [
      {"measurement": "IC50", "setting": "PDE7A", "result": 11.9, "unit": "µM"},
      {"measurement": "Per1 mRNA upregulation", "setting": "Per1 mRNA; 4 h after treatment (stomach)", "result": "diminished"},
      {"measurement": "Per1 mRNA", "setting": "Per1 mRNA; kidney, liver (1 h) and stomach (2 h) after treatment", "result": "upregulated"}
    ]}
  ]
}
